Laboratory results from patent US8471015B2, “Process for producing a green fluorescent protein comprising coelenteramide or an analog thereof” (JNC Corporation, priority 2009, dated 2013).
Read-outs that look alike come from different tables or passages of the source.

Experiments:
apoaequorin = biological target: T1, apoaequorin (Aequorea victoria, UniProt P07164); format: biochemical
T1 construct: OmpA signal peptide (N, cleaved yes); made in house; host or cells: Escherichia coli strain WA802
Protocol: Apoaequorin (0.5 mg, 22 nmol) was mixed with 10 μl of coelenteramide (1.2 μg/μl, 29 nmol, in anhydrous methanol) in 1 ml of 50 mM Tris-HCl (pH 7.6) containing 10 mM CaCl2 and 1 mM DTT. […] Subsequently, syn-BFP was treated at 4° C., 5,000×g for 20 minutes using centrifugal concentrator Vivaspin 2 (10,000 MWCO, Sartorius AG, Germany) to concentrate the mixture to 0.1 ml.
Regarding the production of synthetic gFP (syn-gFP) from apoaequorin and coelenteramide, apoaequorin (0.5 mg, 22 nmol) was mixed with 10 μl of coelenteramide (1.2 μg/μl, 29 nmol, in anhydrous methanol) in 1 ml of 50 mM Tris-HCl (pH 7.6) containing 10 mM EDTA and 1 mM DTT. […]
Absorption spectra were measured at 25° C. with a Jasco (Tokyo, Japan) V-560 spectrophotometer (bandwidth: 0.5 nm, response, medium; scan speed, 100 nm/min.) using a quartz cuvette (10 mm light path). Also, fluorescence spectra were measured on a Jasco FP-6500 fluorescence spectrophotometer (emission/excitation bandwidth: 3 nm, response: 0.5 sec., scan speed: 1000 nm/min.).

T1 sequence (P07164 other isoform, or with tags, fused parts or gaps with the stated changes): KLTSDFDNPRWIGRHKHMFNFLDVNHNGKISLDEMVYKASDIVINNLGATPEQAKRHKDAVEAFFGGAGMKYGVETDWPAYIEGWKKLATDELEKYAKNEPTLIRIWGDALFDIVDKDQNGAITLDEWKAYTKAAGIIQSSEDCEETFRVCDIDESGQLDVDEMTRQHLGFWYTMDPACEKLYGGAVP

| melting point | Compound | Fluorescence intensity (rlu) (excited at 332 nm) (apoaequorin; 10 mM Ca^2+ (Imax, 465 nm), +DTT, 0 hr) | Fluorescence intensity (rlu) (excited at 332 nm) (apoaequorin; 10 mM Ca^2+ (Imax, 465 nm), +DTT, 0.5 hr) | Fluorescence intensity (rlu) (excited at 332 nm) (apoaequorin; 10 mM Ca^2+ (Imax, 465 nm), +DTT, 16 hrs) | Fluorescence intensity (rlu) (excited at 332 nm) (apoaequorin; 10 mM Ca^2+ (Imax, 465 nm), -DTT series, then +DTT, 24 hrs) | Fluorescence intensity (rlu) (excited at 332 nm) (apoaequorin; 10 mM Ca^2+ (Imax, 465 nm), -DTT, 0 hr) | Fluorescence intensity (rlu) (excited at 332 nm) (apoaequorin; 10 mM Ca^2+ (Imax, 465 nm), -DTT, 16 hrs) | Fluorescence intensity (rlu) (excited at 332 nm) (apoaequorin; 10 mM EDTA (Imax, 469.5 nm), +DTT, 0 hr) | Fluorescence intensity (rlu) (excited at 332 nm) (apoaequorin; 10 mM EDTA (Imax, 469.5 nm), +DTT, 0.5 hr) | Fluorescence intensity (rlu) (excited at 332 nm) (apoaequorin; 10 mM EDTA (Imax, 469.5 nm), +DTT, 16 hrs) | Fluorescence intensity (rlu) (excited at 332 nm) (apoaequorin; 10 mM EDTA (Imax, 469.5 nm), -DTT series, then +DTT, 24 hrs) | Fluorescence intensity (rlu) (excited at 332 nm) (apoaequorin; 10 mM EDTA (Imax, 469.5 nm), -DTT, 0 hr) | Fluorescence intensity (rlu) (excited at 332 nm) (apoaequorin; 10 mM EDTA (Imax, 469.5 nm), -DTT, 16 hrs) |
| --- | --- | --- | --- | --- | --- | --- | --- | --- | --- | --- | --- | --- | --- |
| 189.5 to 191 °C | COc1ccc(CC(=O)Nc2ncc(-c3ccc(OC)cc3)nc2Cc2ccccc2)cc1 [IV, coelenteramide dimethyl ether] |  |  |  |  |  |  |  |  |  |  |  |  |
|  | O=C(Cc1ccc(O)cc1)Nc1ncc(-c2ccc(O)cc2)nc1Cc1ccccc1 [Coelenteramide, coelenteramide] | 25.4 rlu | 28.4 rlu | 29.5 rlu | 22.0 rlu | 9.8 rlu | 11.3 rlu | 20.2 rlu | 22.7 rlu | 23.1 rlu | 24.3 rlu | 14.8 rlu | 18.7 rlu |
